Reference: patent US20210386709A1, “COMPOSITIONS AND METHODS FOR SUPPRESSING MSUT2” (United States Government As Represented By The Department …, priority 2020, published 2021)
Each block holds one molecule with its values, some of them ahead of it.

Columns and labels:
[1] = in vivo; cited from earlier work
PABPN1 = molecular target: T1, PABPN1 (Homo sapiens, UniProt Q86U42); assay: PABPN1 fluorescence polarization counter screen; type: binding
T1 construct: made in house; host or cells: E. coli BL21 (DE3)
T1 sequence (Q86U42 1-306): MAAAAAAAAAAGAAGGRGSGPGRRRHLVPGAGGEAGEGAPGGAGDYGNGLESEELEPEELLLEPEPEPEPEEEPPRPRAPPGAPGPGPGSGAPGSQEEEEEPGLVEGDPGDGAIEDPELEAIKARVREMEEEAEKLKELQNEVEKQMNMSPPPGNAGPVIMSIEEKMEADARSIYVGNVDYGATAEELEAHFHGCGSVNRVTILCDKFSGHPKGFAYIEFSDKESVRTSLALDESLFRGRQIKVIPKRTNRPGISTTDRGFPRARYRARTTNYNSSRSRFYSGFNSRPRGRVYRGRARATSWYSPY
Method: A drug repurposing strategy: screening of the NIH Clinical Collection compound library. […] The plan to find suitable lead compounds for drug repurposing began with a screen of the NIH Clinical Collection (NIHCC) library. The NIHCC consists of a diverse array of 700 compounds with historical pharmacological use and well-studied safety profiles. […] An orthogonal poly(A):MSUT2 binding assay allowed the ruling out of assay interference while selectivity against MSUT2 over PABPN1 was determined by a parallel FP assay with PABPN1 as the RBP. […] Thus, the goal was to eliminate compounds interfering with both PABN1 and MSUT2 and focus on compounds truly specific for poly(A):MSUT2 binding.
(§1) Identification and validation of MSUT2 inhibitory compounds from NIHCC library. […] IC50 of each of the previous 8 compounds was determined for PABPN1 using fluorescence polarization (FIG. 11), and a specificity ratio determined (Table 3). An Alpha Screen (AS) assay was developed as an orthogonal screen. Briefly, in this screen, biotinylated RNA binds streptavidin-coated donor beads, while GST-MSUT2 ZF binds glutathione-coated acceptor beads. When donor beads and acceptor beads are brought within close proximity of one another, laser excitation leads to fluorophore emission of the acceptor bead via excited singlet oxygen activating chemiluminescers in the acceptor beads. […] Toxicity of these compounds in a HEK cell model was determined using a standard Promega Cell Titer Glo assay.
(§2) Fluorescence Polarization Assay. […] of stock compound was transferred yielding 10 μM final concentration. […] Fluorescence polarization was calculated by first subtracting background from a buffer-only control well and then using the equation

poly(A) = conditions: cited from earlier work
GST-MSUT2 = molecular target: T2, GST-MSUT2 (Homo sapiens, UniProt Q6PJT7); assay: Alpha Screen assay of biotinylated poly(A) RNA:GST-MSUT2 binding; conditions: orthogonal dose-response validation
T2 construct: Targeted construct consisted of the c-terminal end (dark blue and amino acids 601-736) of MSUT2; made in house; host or cells: E. coli BL21 (DE3)
T2 sequence (Q6PJT7 601-736): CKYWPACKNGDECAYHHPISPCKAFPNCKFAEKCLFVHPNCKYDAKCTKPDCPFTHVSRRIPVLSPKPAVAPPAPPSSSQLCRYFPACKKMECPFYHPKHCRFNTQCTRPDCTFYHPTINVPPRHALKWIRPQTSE
Method: Alpha Screen Assay. Samples were set up in 384 well Perkin Elmer white opaque-bottom plates (PE06). A total reaction volume of […] was plated in 384 format using a CyBio Well Vario (6 μL of donor beads (10 μg/mL), 3 μL biotinylated RNA (250 nM), 3 μL GST-MSUT2 protein (250 nM) per well). 50 nL of compounds were transferred to wells via CyBio Vario equipped with Pin Tool. This mixture was incubated at room temperature for 30 minutes away from light. Next 3 μL of acceptor beads (1.25 μg/mL) was added. Plates were incubated at room temperature away from light for 60 minutes and subsequently read on a Perkin Elmer EnVision multimode microplate reader equipped with stackers using a standard 384-well Alpha Assay software protocol.
Results. Alpha Screen design and underlying principle. Alpha Screen technology relies on donor beads, coated with a hydrogel excitable by 680 nm, brought within close proximity to an acceptor bead leading to light emission and detection. In this assay, streptavidin coated donor beads tightly bind to biotinylated-poly(A) RNA while the glutathione-coated acceptor bead binds to GST-tagged MSUT2 protein. […] When this interaction is blocked by an inhibitor, the proximity threshold for donor and acceptor beads is not met, singlet oxygen transference cannot occur, and light is not emitted by the acceptor bead (FIG. 1a).
Identification and validation of MSUT2 inhibitory compounds from NIHCC library. The single-point primary screen was conducted in duplicate and utilized the FP assay conditions determined herein (e.g., 125 nM MSUT2 RNABP and 10 nM FAM-RNA probe) with 10 μM library compounds added in a 96-well format. […] Compound specificity was empirically tested by counter screening against PABPN1, a regulator of the length of mRNA poly(A) tails (Apponi, L. H. et al. Hum Mol Genet 19, 1058-1065, (2010); and Benoit, B. et al. Dev Cell 9, 511-522, (2005)). IC50 of each of the previous 8 compounds was determined for PABPN1 using fluorescence polarization (FIG. 11), and a specificity ratio determined (Table 3). An Alpha Screen (AS) assay was developed as an orthogonal screen. Briefly, in this screen, biotinylated RNA binds streptavidin-coated donor beads, while GST-MSUT2 ZF binds glutathione-coated acceptor beads. […] Toxicity of these compounds in a HEK cell model was determined using a standard Promega Cell Titer Glo assay.
Alpha Screen Assay. […] The plate was then incubated again at room temperature away from light for 60 minutes and subsequently read on a Perkin Elmer EnSight multimode microplate reader using a standard 96-well Alpha Assay protocol.

MSUT2 ZF = molecular target: T3, MSUT2 ZF (Homo sapiens, UniProt Q6PJT7); assay: Fluorescence polarization assay of FAM-poly(A) RNA:MSUT2 ZF binding
T3 construct: Targeted construct consisted of the c-terminal end (dark blue and amino acids 601-736) of MSUT2; made in house; host or cells: E. coli BL21 (DE3)
T3 sequence (Q6PJT7 601-736): T2 sequence (Q6PJT7 601-736)
Method: Fluorescence Polarization Assay. […] 2 μL of compound was transferred for a final concentration of 10 μM. […] Fluorescence polarization was calculated by first subtracting background from a buffer-only control well and then using the equation
Results and Discussion. A high-throughput fluorescence polarization assay for inhibition of poly(A):MSUT2 RNA interaction. […] In order to screen potential inhibitors of MSUT2 RBP and RNA by FP, fluorescent FAM (fluorescein amidite)-labeled poly(A)15 RNA (FAM-RNA) and recombinant MSUT2 ZF (zinc finger) protein expressing constructs were generated (FIG. 7a). […] Inhibition of the interaction results in unbound FAM-RNA tumbling at a relatively rapid rate and emitting non-polarized light (FIG. 7b).
To determine the concentrations of both MSUT2 ZF protein and FAM-RNA probe useful in the methods described herein, a two dimensional titration of protein and RNA concentrations in 96-well format was performed. […] Next, the binding constant between MSUT2 ZF and FAM-RNA was determined by holding FAM-RNA constant at 10 nM while increasing MSUT2 ZF concentration.
as §1, §2

[2] = molecular target: 3′,5′-cyclic phosphodiesterase; conditions: read-out: Ki (nM) for Known Target; cited from earlier work
elderly patients = conditions: 10 year study of 20,215 elderly patients; cited from earlier work
[3] = tested on: rat model of chronic cerebral hypoperfusion; conditions: cited from earlier work

Method for HEK-293 cells: Cell culture and cytotoxicity screen. […] Cell viability was assessed as using Promega Cell Titer Glo (Promega G7570) per manufacturer protocol. Briefly, HEK-293 cells were grown to 70% confluence in a 96 well plate were treated with indicated concentrations of compounds and incubated for 72 hours at 37° C. Plates were read for luminescence on Perkin Elmer Enspire Alpha.
Cell viability was assessed. Briefly, HEK-293 cells grown to 70% confluence in a 96 well dish were treated with varying concentrations of compound (final concentration of 2% DMSO) and incubated for 72 hours. Next, Promega Cell Titer Glo assay was used to assess viability per manufacturer instructions (Promega G7570).

- IC50 (PABPN1; fluorescence polarization counter screen, unit inferred, read-out: IC50PABPN1): 50600 nM
- PABPN1/MSUT2 specificity ratio (PABPN1; ratio of FP IC50s): 51.07
- inhibition activity by Alpha Screen (AS) (GST-MSUT2): dose-dependent inhibition activity
- Ki (MSUT2 ZF; calculated by Cheng Prusof equation Ki=(IC50)/[(L/Kd)+1], FP dose response, read-out: Ki (nm) for MSUT2): 978 nM
- IC50 (MSUT2 ZF; read-out: IC50MSUT2): 990 nM
SMILES: CC(C)/N=c1\cc2n(-c3ccc(Cl)cc3)c3ccccc3nc-2cc1Nc1ccc(Cl)cc1 [Clofazimine]
- crossing of the blood brain barrier [1]: unable to cross the blood brain barrier
- interaction with poly(A) (poly(A)): little interaction

- Ki (nm) for MSUT2 (MSUT2 ZF; calculated by Cheng Prusof equation Ki=(IC50)/[(L/Kd)+1], FP dose response): failed DR
SMILES: OCCN(CCO)c1nc(N2CCCCC2)c2nc(N(CCO)CCO)nc(N3CCCCC3)c2n1 [Dipyridamole]
- Ki [2]: 1000 nM

SMILES: O=S(=O)(O)c1cc(N=C=S)ccc1C=Cc1ccc(N=C=S)cc1S(=O)(=O)O [4,4-diisothiocyanostilbene-2,2′-sulfonic acid]
- toxicity (effect on cell viability) (HEK-293 cells): relatively non-toxic at the doses tested

SMILES: CNCC[C@H](Oc1cccc2ccccc12)c1cccs1 [Duloxetine]
- IC50PABPN1 (PABPN1; fluorescence polarization counter screen, unit not given): None
- inhibition activity by Alpha Screen (AS) (GST-MSUT2): dose-dependent inhibition activity
- risk of dementia (elderly patients): associated with reduced risk of dementia
- neuronal loss in the hippocampus [3]: attenuated neuronal loss in the hippocampus
